Data as given in article PMC9331678 (Molecules, 2022).

Legend:
[1] = 6 h benchtop (early preanalytical) stability in whole blood and in plasma; assay type: in vitro ADME, human; conditions: ambient temperature (25 °C), up to 6 h
Procedure: Six independent plasma samples were processed. The reference solutions were 140 µL acetonitrile-water 4:1 (v/v) mixtures spiked as described above. The mixtures and the reference solutions were subsequently diluted with 90 µL water. Internal standard-corrected matrix factors were calculated as the peak area ratios of the analytes and the internal standards in prepared plasma versus those in a neat solution. In the stability studies, the recoveries of IBR and DIB were calculated as the ratio of the concentrations measured after incubation and those measured at the beginning of the study.
The preanalytical stability of IBR and DIB was evaluated by adding 20 µL methanol solutions containing 500 ng/mL IBR and DIB to two 1.0 mL aliquots of blood freshly drawn into phlebotomy tubes containing K3-EDTA. Three samples, 3 mL each, were taken from three healthy volunteers (manuscript authors G.B.K., I.V. and Z.K.). One of the fractions was centrifuged at 3000 rpm and 10 °C for 10 min immediately after spiking the analytes, and plasma was separated. Both spiked whole blood and the separated plasma were kept at ambient temperature for 6 h. […] Fifty microliters was drawn from the supernatant of the whole blood sample as well as from the plasma, and was processed as described in Section 2.2.

[2] = cited from earlier work
plasma albumin = conditions: cited from earlier work
[3] = cited from earlier work; remark: listed apart in the source
[4] = plasma kept at ambient temperature for 24 h; ref 24 (Huynh et al.); cited from earlier work

recovery at 9.8 ng/mL ([1]; human, plasma (separated from spiked K3-EDTA whole blood), plasma, all analyses): ≥ 85%
cases with recoveries lower than 85% (of fifteen analyses) ([1]; whole blood): two
SMILES: C=CC(=O)N1CCC[C@@H](n2nc(-c3ccc(Oc4ccccc4)cc3)c3c(N)ncnc32)C1 [Ibrutinib, 1-[(3R)-3-[4-Amino-3-(4-phenoxyphenyl)-1H-pyrazolo[3,4-d]pyrimidin-1-yl]-1-piperidinyl]-2-propen-1-one]
oral bioavailability [2]: low
affinity to plasma albumin (plasma albumin): > 95%
solubility in water [3]: poor
recoveries [4]: 46.7–72.9%
